The values below come from patent publication US20240139223A1, “SOY ISOFLAVONES FOR ASTHMA PREVENTION” (University of South Florida, priority 2021, published 2024).

Experiment [1] concerns PAI-1 production in normal human bronchial epithelial (NHBE) cells. As to the kind of experiment: TGF-β1-induced PAI-1 gene expression and protein production in NHBE cells (real-time PCR, ELISA). The format is cell-based. The following applies: for TGF-β1-induced PAI-1 protein production: 6 hours, NHBE. The method, then:
Normal human bronchial epithelial (NHBE) cells were cultured, as previously described in Cho S H, Lee S H, Kato A, Takabayashi T, Kulka M, Shin S C, et al. Cross-talk between human mast cells and bronchial epithelial cells in plasminogen activator inhibitor-1 production via transforming growth factor-b1. Am J Respir Cell Mol Biol 2015; 52:88-95, herein incorporated by reference in its entirety into this disclosure. […] Cell pellets were used for real-time PCR, and cell-culture supernatants were used for PAI-1 protein ELISA.
The PAI-1 concentration in the blood of subjects and supernatants of NHBE cells was measured in duplicate by means of ELISA (Assay Pro, St Charles, Mo), as previously described in Cho et al. 2015, herein incorporated by reference in its entirety into this disclosure. For mRNA analysis of PAI-1 (Hs00167155_m1), quantitative real-time PCR was performed with the ViiA 7 Real-Time PCR System (Applied Biosystems, Foster City, Calif). Expression of glyceraldehyde-3-phosphate dehydrogenase (GAPDH; Hs02786624_g1) was used as an internal control for normalization. Cycling conditions were as follows: 50° C. for 2 minutes (hold) for 1 cycle, 95° C. for 10 minutes (hold) for 1 cycle, and 95° C. for 15 seconds and 60° C. for 1 minute (cycling) for 40 cycles. Relative gene expression was calculated by using the comparative 2^−ΔΔCT method.
To investigate the cellular mechanism of the soy isoflavone/PAI-1 link, the inventors treated cultured NHBE cells with TGF-β1 (2 ng/mL) for 6 hours with and without genistein pretreatment. There was a significant increase in PAI-1 mRNA and protein production (about 10-fold) after adding TGF-β1 (FIG. 1). […] Soy isoflavones reduce asthma exacerbation in high PAI-1 producing genotype. (FIG. 2)
There was a significant increase of the PAI-1 mRNA and protein production (about 10-fold) after adding the TGF-β1 (FIG. 5).

In experiment [2] the test system is murine model of asthma (BALB/c mice). As to the kind of experiment: Airway hyperresponsiveness (total respiratory system resistance, FlexiVent) in OVA murine model of asthma. The format is in vivo, mouse. The following applies: summary. The method, then: Eight-week-old BALB/c mice were purchased from The Jackson Lab and housed in standard laboratory conditions (12/12-h light/dark cycle, 22-24° C., 40-60% humidity). Forty female mice were divided into four groups (namely, OVA+Veh, OVA+Bio300, PBS+Veh, PBS+Bio300). Genistein (Bio300, Humanetics Corp.) was administered to two of the groups in conjunction with either OVA or PBS. The mice in each group (n=10) were equally divided into two cages (5 mice/cage) to provide appropriate space for the mice. […]
From Day 14 to Day 28, the OVA+Bio300 and PBS+Bio300 groups received Bio300 (100 ul) by oral gavage every other day. […] On Day 29, airway hyperresponsiveness (AHR) was assessed and tissues were obtained for further analysis.
All mice were anesthetized with ketamine, tracheostomized, and mechanically ventilated with a FlexiVent system (SCIREQ, Flexivent, Scireq Inc., Montreal, Canada) as described in Choi et al., incorporated by reference in its entirety herein. […] Volume changes due to thoracic expansion and alterations in tracheal pressure were measured in response to challenges with increasing concentrations of methacholine (3, 6, 12, 25, and 50 mg/mL) and reported as total respiratory system resistance (Rrs).

The test system of experiment [3] is pDCs. As to conditions: cited from earlier work.
In experiment [4] the test system is human rhinovirus (HRV). As to conditions: compared with guideline-driven care alone; cited from earlier work.

Consider `O=c1c(-c2ccc(O)cc2)coc2cc(O)cc(O)c12` [genistein], for which the “PAI-1 production from human bronchial EC and mast cells” value in experiment [1] (FIG. 5 legend) is “significantly reduces”. Besides, the “TGF-β1-induced PAI-1 gene expression and protein production” value in experiment [1] (NHBE cells, genistein pretreatment) was “significantly reduced”. For the same compound, the “TGF-β1-induced PAI-1 protein production” value in experiment [1] (genistein 1 μM pretreatment, TGF-β1 2 ng/ml) was 360700 ± 10500 pg/mL; in experiment [1] (genistein 5 μM pretreatment, TGF-β1 2 ng/ml), 306.0 ± 5.3 pg/mL; in experiment [1] (genistein 5 mmol/L pretreatment, TGF-β1 2 ng/mL), 306.0 ± 5.3 pg/mL. For the same compound, the “Allergic inflammation and airway hyperreactivity” value in experiment [2] was “reduced allergic inflammation and improved airway hyperreactivity”.

On to “omalizumab: costly biological agent blocking IgE, administered by injection”, for which the “Interferon alpha production from pDCs” value in experiment [3] (ex vivo and in vivo treatment) is “restored”. Also, in experiment [3] (omalizumab treatment, previous study), the “Reduction of FcεRIα expression on pDCs” value is listed as “about 57%”. Moreover, the “Duration of HRV infections, viral shedding, and risk of HRV-related illness” value in experiment [4] was “decreased”.

“TGF-β1: recombinant human TGF-β1 (R&D Systems), stimulus of PAI-1 production [reference compound]”: the “Increase in PAI-1 mRNA and protein production” value in experiment [1] (NHBE cells, TGF-β1 2 ng/mL for 6 hours) is listed as “about 10 fold”.
